According to patent publication US8247211B2, “Glycopeptide antibiotics” (American Cyanamid Company, priority 2001, dated 2012):
Values after ≈ are worked out from the molar mass of the structure shown.

What was measured:
Assay in all cases: In vitro antibacterial evaluation: minimum inhibitory concentration (MIC), broth dilution method
Type in all cases: cell-based
Enterococcus sp. = conditions: broth dilution, 5×10^5 CFU/mL, 18 hours at 35° C.
Procedure: (§1) The minimum inhibitory concentration (MIC), the lowest concentration of the antibiotic which inhibits growth of the test organism, is determined by the broth dilution method using Muller-Hinton II […] (Baltimore Biological Laboratories) following the recommendations of the National Committee for Clinical Laboratory Standards [Methods for dilution antimicrobial susceptibility tests for bacteria that grow aerobically, approved standard M7-A2, National Committee for Clinical Laboratory Standards, Villanova, Pa].
(§2) An inoculum level of 5×10^5 CFU/mL, and a range of antibiotic concentrations (64-0.06 μg/mL) is used. […] The test organisms include a spectrum of Gram-positive bacteria comprised of Staphylococcus sp., Streptococcus sp. and Enterococcus sp. These organisms include recent clinical isolates that are resistant to methicillin, penicillin and/or vancomycin.

Escherichia coli = conditions: 5×10^5 CFU/mL, 18 hours at 35° C.
Procedure: as §1, §2

Staphylococcus sp. = conditions: for MIC Staphylococcus aureus (ATCC 29213): strain ATCC 29213; for MIC Staphylococcus aureus (GC 1131): strain GC 1131; for MIC Staphylococcus aureus (GC 3051): strain GC 3051; for MIC Staphylococcus aureus (GC 3053): strain GC 3053; for MIC Staphylococcus aureus (GC 4541): strain GC 4541; for MIC Staphylococcus aureus (GC 4542): strain GC 4542; for MIC Staphylococcus aureus-SMITH (GC 4543): strain GC 4543; for MIC Staphylococcus aureus (GC 4544): strain GC 4544; for MIC Staphylococcus aureus (GC 4545): strain GC 4545; for MIC Staphylococcus haemolyticus (GC 4546): strain GC 4546; for MIC Coagulase Negative Staphylococcus (GC 4547): strain GC 4547; for MIC Coagulase Negative Staphylococcus (GC 4548): strain GC 4548; for MIC Coagulase Negative Staphylococcus (GC 4549): strain GC 4549; for MIC Coagulase Negative Staphylococcus (GC 4551): strain GC 4551; for MIC Coagulase Negative Staphylococcus (ID-3941): strain ID-3941
Procedure: as §1, §2

Streptococcus sp. = conditions: broth dilution, 5×10^5 CFU/mL, 18 hours at 35° C.
Procedure: as §1, §2

[1] = broth dilution, 18 hours at 35° C.

MIC Enterococccus avium (GC 4558) (Enterococcus sp.) [µg/mL] | MIC Enterococccus faecalis (ATCC 29212) (Enterococcus sp.) [µg/mL] | MIC Enterococccus faecalis (GC 4552) (Enterococcus sp.) [µg/mL] | MIC Enterococccus faecalis (GC 4553) (Enterococcus sp.) [µg/mL] | MIC Enterococccus faecalis (GC 4554) (Enterococcus sp.) [µg/mL] | MIC Enterococccus faecium (GC 2243) (Enterococcus sp.) [µg/mL] | MIC Enterococccus faecium (GC 4556) (Enterococcus sp.) [µg/mL] | MIC Enterococccus faecium (GC 4557) (Enterococcus sp.) [µg/mL] | MIC Enterococcus faecalis (GC 2242) (Enterococcus sp.) [µg/mL] | MIC Escherichia coli (ATCC 25922) (Escherichia coli) [µg/mL] | MIC Staphylococcus aureus (ATCC 29213) (Staphylococcus sp.) [µg/mL] | MIC Staphylococcus aureus (GC 1131) (Staphylococcus sp.) [µg/mL] | MIC Staphylococcus aureus (GC 4541) (Staphylococcus sp.) [µg/mL] | MIC Staphylococcus aureus (GC 4542) (Staphylococcus sp.) [µg/mL] | MIC Staphylococcus aureus-SMITH (GC 4543) (Staphylococcus sp.; 18 hours at 35° C.) [µg/mL] | MIC Staphylococcus aureus-SMITH (GC 4543) (Staphylococcus sp.; [1]) [µg/mL] | MIC Staphylococcus aureus (GC 4544) (Staphylococcus sp.) [µg/mL] | MIC Staphylococcus aureus (GC 4545) (Staphylococcus sp.) [µg/mL] | Compound | MIC Staphylococcus haemolyticus (GC 4546) (Staphylococcus sp.) [µg/mL] | MIC Staphylococcus haemolyticus (GC 4546) (Staphylococcus sp.; [1]) [µg/mL] | other results
4 (≈ 2.82 µM) | 8 (≈ 5.64 µM) | 4 (≈ 2.82 µM) | 4 (≈ 2.82 µM) | 8 (≈ 5.64 µM) | 4 (≈ 2.82 µM) | 8 (≈ 5.64 µM) | 2 (≈ 1.41 µM) | 4 (≈ 2.82 µM) | 32 (≈ 22.5 µM) | 2 (≈ 1.41 µM) | 2 (≈ 1.41 µM) | 2 (≈ 1.41 µM) | 2 (≈ 1.41 µM) | 2 (≈ 1.41 µM) | 2 (≈ 1.41 µM) | 4 (≈ 2.82 µM) | 2 (≈ 1.41 µM) | N=C1NCC(C(O)C2NC(=O)C(Cc3ccc(OC4OC(CO)C(OC5OC(CO)C(O)C6OC7(OC56)C5CC6CC(C5)CC7C6)C(O)C4O)cc3)NC(=O)C(CC3CCCCC3)NC(=O)CNC(=O)C(CO)NC(=O)C(C(O)C3CNC(=N)N3C3OC(CO)C(O)C(O)C3O)NC2=O)N1 (centres unmarked) [Example 106a, Cyclo[3-cyclohexylalanyl-O-[4-O-[2,3-O-(2-adamantylidene)hexopyranosyl]hexopyranosyl]-tyrosyl-3-(2-iminoimidazolidin-4-yl)seryl-3-(3-hexopyranosyl-2-iminoimidazolidin-4-yl)-serylserylglycyl]] | 2 (≈ 1.41 µM) | 2 (≈ 1.41 µM) | MIC Enterococccus faecalis (GC 2691) (Enterococcus sp.): 4 µg/mL (≈ 2.82 µM); MIC Enterococccus faecalis (GC 3059) (Enterococcus sp.): 8 µg/mL (≈ 5.64 µM); MIC Enterococccus faecalis (GC 6189) (Enterococcus sp.): 4 µg/mL (≈ 2.82 µM); MIC Escherichia coli (GC 4559) (Escherichia coli): 32 µg/mL (≈ 22.5 µM); MIC Escherichia coli (GC 4560) (Escherichia coli): 2 µg/mL (≈ 1.41 µM); MIC Staphylococcus aureus (GC 3051) (Staphylococcus sp.): 2 µg/mL (≈ 1.41 µM); MIC Staphylococcus aureus (GC 3053) (Staphylococcus sp.): 2 µg/mL (≈ 1.41 µM); MIC Coagulase Negative Staphylococcus (GC 4547) (Staphylococcus sp.): 2 µg/mL (≈ 1.41 µM); MIC Coagulase Negative Staphylococcus (GC 4547) (Staphylococcus sp.; [1]): 2 µg/mL (≈ 1.41 µM); MIC Coagulase Negative Staphylococcus (GC 4548) (Staphylococcus sp.): 1 µg/mL (≈ 0.704 µM); MIC Coagulase Negative Staphylococcus (GC 4548) (Staphylococcus sp.; [1]): 1 µg/mL (≈ 0.704 µM); MIC Coagulase Negative Staphylococcus (GC 4549) (Staphylococcus sp.): 1 µg/mL (≈ 0.704 µM); MIC Coagulase Negative Staphylococcus (GC 4549) (Staphylococcus sp.; [1]): 1 µg/mL (≈ 0.704 µM); MIC Coagulase Negative Staphylococcus (GC 4551) (Staphylococcus sp.): 2 µg/mL (≈ 1.41 µM); MIC Coagulase Negative Staphylococcus (GC 4551) (Staphylococcus sp.; [1]): 2 µg/mL (≈ 1.41 µM); MIC Streptococcus agalactiae (GC 4564) (Streptococcus sp.): 0.25 µg/mL (≈ 0.176 µM); MIC Streptococcus pneumoniae (GC 1894) (Streptococcus sp.): <0.06 µg/mL; MIC Streptococcus pneumoniae (GC 4565) (Streptococcus sp.): <0.06 µg/mL; MIC Streptococcus pneumonine (ATCC 6301) (Streptococcus sp.): 0.12 µg/mL (≈ 0.0845 µM); MIC Streptococcus pyogenes (GC 4563) (Streptococcus sp.): 0.25 µg/mL (≈ 0.176 µM)
4 (≈ 2.58 µM) | 8 (≈ 5.16 µM) | 8 (≈ 5.16 µM) | 8 (≈ 5.16 µM) | 16 (≈ 10.3 µM) | 8 (≈ 5.16 µM) | 8 (≈ 5.16 µM) | 4 (≈ 2.58 µM) | 8 (≈ 5.16 µM) | 64 (≈ 41.2 µM) | 8 (≈ 5.16 µM) | 8 (≈ 5.16 µM) | 16 (≈ 10.3 µM) | 8 (≈ 5.16 µM) | 8 (≈ 5.16 µM) | 8 (≈ 5.16 µM) | 16 (≈ 10.3 µM) | 8 (≈ 5.16 µM) | N=C1NCC(C(O)C2NC(=O)C(Cc3ccc(OC4OC(CO)C(OC5OC6COC7(OC6C6OC8(OC56)C5CC6CC(C5)CC8C6)C5CC6CC(C5)CC7C6)C(O)C4O)cc3)NC(=O)C(CC3CCCCC3)NC(=O)CNC(=O)C(CO)NC(=O)C(C(O)C3CNC(=N)N3C3OC(CO)C(O)C(O)C3O)NC2=O)N1 (centres unmarked) [Example 106b] | 4 (≈ 2.58 µM) | 4 (≈ 2.58 µM) | MIC Enterococccus faecalis (GC 2691) (Enterococcus sp.): 16 µg/mL (≈ 10.3 µM); MIC Enterococccus faecalis (GC 3059) (Enterococcus sp.): 16 µg/mL (≈ 10.3 µM); MIC Enterococccus faecalis (GC 6189) (Enterococcus sp.): 8 µg/mL (≈ 5.16 µM); MIC Escherichia coli (GC 4559) (Escherichia coli): 32 µg/mL (≈ 20.6 µM); MIC Escherichia coli (GC 4560) (Escherichia coli): 8 µg/mL (≈ 5.16 µM); MIC Staphylococcus aureus (GC 3051) (Staphylococcus sp.): 8 µg/mL (≈ 5.16 µM); MIC Staphylococcus aureus (GC 3053) (Staphylococcus sp.): 8 µg/mL (≈ 5.16 µM); MIC Coagulase Negative Staphylococcus (GC 4547) (Staphylococcus sp.): 8 µg/mL (≈ 5.16 µM); MIC Coagulase Negative Staphylococcus (GC 4547) (Staphylococcus sp.; [1]): 8 µg/mL (≈ 5.16 µM); MIC Coagulase Negative Staphylococcus (GC 4548) (Staphylococcus sp.): 4 µg/mL (≈ 2.58 µM); MIC Coagulase Negative Staphylococcus (GC 4548) (Staphylococcus sp.; [1]): 4 µg/mL (≈ 2.58 µM); MIC Coagulase Negative Staphylococcus (GC 4549) (Staphylococcus sp.): 4 µg/mL (≈ 2.58 µM); MIC Coagulase Negative Staphylococcus (GC 4549) (Staphylococcus sp.; [1]): 4 µg/mL (≈ 2.58 µM); MIC Coagulase Negative Staphylococcus (GC 4551) (Staphylococcus sp.): 8 µg/mL (≈ 5.16 µM); MIC Coagulase Negative Staphylococcus (GC 4551) (Staphylococcus sp.; [1]): 8 µg/mL (≈ 5.16 µM); MIC Streptococcus agalactiae (GC 4564) (Streptococcus sp.): 0.5 µg/mL (≈ 0.322 µM); MIC Streptococcus pneumoniae (GC 1894) (Streptococcus sp.): <0.12 µg/mL; MIC Streptococcus pneumoniae (GC 4565) (Streptococcus sp.): 0.5 µg/mL (≈ 0.322 µM); MIC Streptococcus pneumonine (ATCC 6301) (Streptococcus sp.): 0.5 µg/mL (≈ 0.322 µM); MIC Streptococcus pyogenes (GC 4563) (Streptococcus sp.): 0.5 µg/mL (≈ 0.322 µM)
8 (≈ 5.87 µM) | 4 (≈ 2.93 µM) | 4 (≈ 2.93 µM) | 8 (≈ 5.87 µM) | 4 (≈ 2.93 µM) | 8 (≈ 5.87 µM) | 4 (≈ 2.93 µM) | 2 (≈ 1.47 µM) | 4 (≈ 2.93 µM) | 64 (≈ 46.9 µM) | 1 (≈ 0.733 µM) | 2 (≈ 1.47 µM) | 2 (≈ 1.47 µM) | 1 (≈ 0.733 µM) | 1 (≈ 0.733 µM) | 1 (≈ 0.733 µM) | 2 (≈ 1.47 µM) | 1 (≈ 0.733 µM) | CC(C)CC1OCC2OC(OC3C(CO)OC(Oc4ccc(CC5NC(=O)C(C(C)c6ccccc6)NC(=O)CNC(=O)C(CO)NC(=O)C(C(O)C6CNC(=N)N6C6OC(CO)C(O)C(O)C6O)NC(=O)C(C(O)C6CNC(=N)N6)NC5=O)cc4)C(O)C3O)C(O)C(O)C2O1 (stereo not drawn) [Example 107, Cyclo[glycyl-β-methylphenylalanyl-O-[4-O-[4,6-O-(3-methylbutylidene)hexopyranosyl]-hexopyranosyl]tyrosyl-3-(2-iminoimidazolidin-4-yl)seryl-3-(3-hexopyranosyl-2-iminoimidazolidin-4-yl)serylseryl]] | 1 (≈ 0.733 µM) | 1 (≈ 0.733 µM) | MIC Staphylococcus aureus (ATCC 29213) (Staphylococcus sp.; [1]): 1 µg/mL (≈ 0.733 µM); MIC Staphylococcus aureus (GC 1131) (Staphylococcus sp.; [1]): 2 µg/mL (≈ 1.47 µM); MIC Staphylococcus aureus (GC 4541) (Staphylococcus sp.; [1]): 2 µg/mL (≈ 1.47 µM); MIC Staphylococcus aureus (GC 4542) (Staphylococcus sp.; [1]): 1 µg/mL (≈ 0.733 µM); MIC Staphylococcus aureus (GC 4544) (Staphylococcus sp.; [1]): 2 µg/mL (≈ 1.47 µM); MIC Staphylococcus aureus (GC 4545) (Staphylococcus sp.; [1]): 1 µg/mL (≈ 0.733 µM); MIC Coagulase Negative Staphylococcus (GC 4547) (Staphylococcus sp.): 1 µg/mL (≈ 0.733 µM); MIC Coagulase Negative Staphylococcus (GC 4547) (Staphylococcus sp.; [1]): 1 µg/mL (≈ 0.733 µM); MIC Coagulase Negative Staphylococcus (GC 4548) (Staphylococcus sp.): 1 µg/mL (≈ 0.733 µM); MIC Coagulase Negative Staphylococcus (GC 4548) (Staphylococcus sp.; [1]): 1 µg/mL (≈ 0.733 µM); MIC Coagulase Negative Staphylococcus (GC 4549) (Staphylococcus sp.): 1 µg/mL (≈ 0.733 µM); MIC Coagulase Negative Staphylococcus (GC 4549) (Staphylococcus sp.; [1]): 1 µg/mL (≈ 0.733 µM); MIC Coagulase Negative Staphylococcus (GC 4551) (Staphylococcus sp.): 1 µg/mL (≈ 0.733 µM); MIC Coagulase Negative Staphylococcus (GC 4551) (Staphylococcus sp.; [1]): 1 µg/mL (≈ 0.733 µM); MIC Coagulase Negative Staphylococcus (ID-3941) (Staphylococcus sp.): 1 µg/mL (≈ 0.733 µM); MIC Coagulase Negative Staphylococcus (ID-3941) (Staphylococcus sp.; [1]): 1 µg/mL (≈ 0.733 µM); MIC Streptococcus agalactiae (GC 4564) (Streptococcus sp.): 0.25 µg/mL (≈ 0.183 µM); MIC Streptococcus pneumoniae (GC 4565) (Streptococcus sp.): <0.12 µg/mL; MIC Streptococcus pyogenes (ID-3187) (Streptococcus sp.): 0.25 µg/mL (≈ 0.183 µM)
